“Also recorded” adds a separate entry of the source.
Key:
PAR4 [1] = target: T1, PAR4 (Homo sapiens, UniProt Q96RI0); experiment: PAC-1 binding assay; type: cell-based; details: for PAR4 activity (in words): PAR4-AP, PAC-1
T1 sequence (Q96RI0 18-385): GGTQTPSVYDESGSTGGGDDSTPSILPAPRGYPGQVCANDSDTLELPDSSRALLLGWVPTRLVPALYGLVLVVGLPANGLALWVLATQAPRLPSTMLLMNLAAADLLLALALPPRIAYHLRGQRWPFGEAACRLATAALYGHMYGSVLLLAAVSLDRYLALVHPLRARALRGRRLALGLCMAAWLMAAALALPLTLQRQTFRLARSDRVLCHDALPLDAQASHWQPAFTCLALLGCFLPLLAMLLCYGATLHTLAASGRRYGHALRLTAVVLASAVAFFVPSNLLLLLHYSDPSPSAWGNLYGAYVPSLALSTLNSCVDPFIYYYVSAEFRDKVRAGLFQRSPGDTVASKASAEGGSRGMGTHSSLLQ

PAR4 [2] = target: T2, PAR4 (Homo sapiens, UniProt Q96RI0); details: literature antagonists; cited from earlier work
T2 sequence (Q96RI0 48-385): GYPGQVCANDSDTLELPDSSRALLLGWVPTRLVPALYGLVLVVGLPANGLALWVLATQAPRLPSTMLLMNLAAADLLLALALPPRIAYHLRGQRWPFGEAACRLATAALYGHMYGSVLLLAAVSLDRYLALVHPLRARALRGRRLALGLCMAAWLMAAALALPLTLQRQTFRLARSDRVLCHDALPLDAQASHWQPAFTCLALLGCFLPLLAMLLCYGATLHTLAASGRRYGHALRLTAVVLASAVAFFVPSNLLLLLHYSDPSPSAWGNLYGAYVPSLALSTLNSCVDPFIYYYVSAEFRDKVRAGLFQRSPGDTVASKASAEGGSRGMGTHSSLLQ

In vivo rat PK = details: plasma, iv, 0.2 mg/kg
PAR4 [3] = target: T1, PAR4; experiment: Progressive fold-shift inhibition assay/Schild analysis; type: cell-based
[4] = Predicted hepatic clearance in human microsomes; type: in vitro ADME
[5] = Predicted hepatic clearance in rat microsomes; type: in vitro ADME
PAR4 [6] = details: read-out: EC50 for PAR4; thrombin as agonist; background statement; cited from earlier work

With `COc1ccc(-c2c(CO)n(Cc3cccc(F)c3)c3ccc(OC(F)(F)F)cc23)cn1` [9e] the “PAR4 activity (in words)” value (PAR4 [1]) was “devoid of PAR4 activity”.
In the case of `CCOC(=O)c1ccc(-c2nn(Cc3ccccc3)c3ccccc23)cc1` [compound 1], the “activity upon γ-thrombin activation (in words)” value (PAR4 [2]) is given as “lack of activity”.
With `COc1cccc(Cn2c(CO)c(-c3ccc(OC)nc3)c3cc(C(F)(F)F)ccc32)c1` [9d] the “PAR4 activity (in words)” value (PAR4 [1]) was “devoid of PAR4 activity”.
In the case of `COc1ccc(-c2c(CO)n(Cc3ccccc3F)c3ccc(OC(F)(F)F)cc23)cn1` [9c], the “PAR4 activity (in words)” value (PAR4 [1]) is reported as “devoid of PAR4 activity”.
In the case of `COc1ccc(-c2c(CO)n(Cc3ccccc3Cl)c3cc(OC(F)(F)F)ccc23)cn1` [11d], the IC50 (PAR4 [1]) is reported as 930 nM.
With `OCc1c(-c2cncnc2)c2cc(OC(F)(F)F)ccc2n1Cc1ccc(F)cc1F` [10b] the “PAR4 activity (in words)” value (PAR4 [1]) was “inactive”.
With `COc1ccc(-c2c(CO)n(Cc3cccc(Cl)c3)c3ccc(OC(F)(F)F)cc23)cn1` [9h] the “PAR4 activity (in words)” value (PAR4 [1]) was “devoid of PAR4 activity”.
In the case of `COc1ccc(-c2c(CO)n(Cc3ccccc3)c3ccc(OC(F)(F)F)cc23)cn1` [9b], the “PAR4 activity (in words)” value (PAR4 [1]) is reported as “devoid of PAR4 activity”.
For `COc1nn2cc(-c3c(CO)n(Cc4ccccc4Cl)c4ccc(OC(F)(F)F)cc34)nc2s1` [10h], the clearance at 6 h (In vivo rat PK) was 45 mL/min/kg, the “mode of PAR4 inhibition” value (PAR4 [3]) was “complex mode of PAR4 inhibition; also recorded: mixed competitive/noncompetitive mechanism of action” and the “human CLHEP” value [4] was 1.1 mL/min/kg. For the same molecule, the “rat CLHEP” value [5] was 36.1 mL/min/kg.
In the case of Thrombin, the EC50 (PAR4 [6]) is listed as about 5 nM.
For `CSc1ncc(-c2c(CO)n(Cc3ccc(F)cc3F)c3ccc(OC(F)(F)F)cc23)cn1` [10c], the IC50 (PAR4 [1]) was 1490 nM.
With `COc1ccc(-c2c(CO)n(C)c3ccc(C(F)(F)F)cc23)cn1` [9a] the “PAR4 activity (in words)” value (PAR4 [1]) was “devoid of PAR4 activity”.

Reference: publication PMC5775816 (Journal of medicinal chemistry, 2016)
